According to BindingDB's records for doi:10.1080/14756360600889708 (University of Karachi, 2006):

Columns and labels:
[1] = target: Carboxylic ester hydrolase (Equus caballus, UniProt Q9N1N9); assay: Enzyme Inhibition Assay; details: 30 °C
Procedure: (§1) AChE and BChE inhibitory activities were measured in vitro by a modified spectrophotometric method. all the inhibition studies were performed using a Spectra Max microplate spectrophotometer from Molecular Devices, CA, USA.

[2] = target: Acetylcholinesterase (Tetronarce californica, UniProt P04058); assay: Enzyme Inhibition Assay; details: 30 °C
Procedure: as §1

Chain of Carboxylic ester hydrolase (Q9N1N9 whole entry): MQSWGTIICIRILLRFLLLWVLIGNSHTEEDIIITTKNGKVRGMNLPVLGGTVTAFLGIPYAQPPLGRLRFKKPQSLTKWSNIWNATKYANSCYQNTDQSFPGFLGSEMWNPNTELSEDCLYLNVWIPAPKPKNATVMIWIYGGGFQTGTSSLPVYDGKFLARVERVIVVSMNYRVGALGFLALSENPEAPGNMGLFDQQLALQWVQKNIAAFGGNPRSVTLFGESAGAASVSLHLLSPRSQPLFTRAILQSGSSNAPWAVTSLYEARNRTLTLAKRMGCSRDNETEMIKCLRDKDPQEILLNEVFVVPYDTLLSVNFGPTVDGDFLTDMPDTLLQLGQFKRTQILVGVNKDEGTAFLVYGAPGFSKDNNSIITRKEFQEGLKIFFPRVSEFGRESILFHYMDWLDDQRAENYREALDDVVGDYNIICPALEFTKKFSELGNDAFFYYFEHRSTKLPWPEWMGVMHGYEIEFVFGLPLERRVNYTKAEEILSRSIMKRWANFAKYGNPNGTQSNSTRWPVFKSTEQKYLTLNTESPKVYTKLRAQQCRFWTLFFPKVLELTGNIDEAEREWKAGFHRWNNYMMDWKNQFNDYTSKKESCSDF
Chain of Acetylcholinesterase (P04058 whole entry): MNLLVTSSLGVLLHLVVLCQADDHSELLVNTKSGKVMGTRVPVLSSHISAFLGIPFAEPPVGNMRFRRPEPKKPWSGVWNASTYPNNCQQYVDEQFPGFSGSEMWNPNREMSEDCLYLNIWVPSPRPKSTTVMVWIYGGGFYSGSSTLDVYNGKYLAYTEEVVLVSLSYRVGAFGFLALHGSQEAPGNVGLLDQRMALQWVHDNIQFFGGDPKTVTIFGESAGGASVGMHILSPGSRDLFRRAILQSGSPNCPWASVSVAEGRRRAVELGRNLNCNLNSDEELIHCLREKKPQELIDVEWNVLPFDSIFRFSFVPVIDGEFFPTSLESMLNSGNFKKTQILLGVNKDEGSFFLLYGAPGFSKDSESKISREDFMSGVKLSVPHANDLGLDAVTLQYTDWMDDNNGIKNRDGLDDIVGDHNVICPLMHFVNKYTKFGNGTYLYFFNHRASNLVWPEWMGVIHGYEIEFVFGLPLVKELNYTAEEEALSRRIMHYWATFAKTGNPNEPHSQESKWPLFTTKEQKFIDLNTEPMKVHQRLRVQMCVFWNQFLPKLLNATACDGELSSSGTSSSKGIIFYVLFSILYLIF

Row | Structure (SMILES) | Ki [1] [µM] | Ki [2] [µM]
1 | COC(C)(C)[C@H]1Cc2c(n(C)c3ccccc3c2=O)O1 [Methyl isoplatydesmine, 4] | 19 | 30
2 | Cn1c2c(c(=O)c3ccccc31)C[C@@H](O)C(C)(C)O2 [Ribalinine, 3] | 70 | 30
3 | COc1ccc2c3c1O[C@H]1C[C@@H](O)C=C[C@@]31CCN(C)C2 [galantamine] | 32 | –
